These results are taken from PubChem BioAssay (NCI).

Common to all, as to assay: inhibition of tumour cell growth, NCI panel, 48 h
For experiment [1], the system named is A498 renal.
Experiment [2] deals with DU-145 prostate.
Experiment [3] concerns HCT-15 colon.
The test system of experiment [4] is K-562 leukemia.
The subject of experiment [5] is M14 melanoma.
For experiment [6], the system named is MDA-MB-231 breast.
Experiment [7] deals with RPMI-8226 leukemia.
Experiment [8] deals with UO-31 renal.

The structures appear in SMILES notation. Several values for one entry are separate records, joined by “and”; a condition that tells them apart may be missing. Equal values may be shown once.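 Values below derive from 48-hour exposures of cells grown in 96-well plates, with endpoints linearly interpolated between the two concentrations bracketing the appropriate inhibition level. GI50: concentration for 50% inhibition of growth. TGI: concentration producing complete growth inhibition.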

Regarding `Clc1ccccc1[C@@H]1C[C@@H]2Cc3cc(Br)c4ccccc4c3N1O2`, the GI50 in experiment [1] was 3.79 µM; in experiment [2] it was 5.59 µM; in experiment [3], 4.39 µM; in experiment [4], 3.92 µM; in experiment [5], 3.74 µM; in experiment [6] it was 10.4 µM. For the same compound, the figures for the GI50 in experiment [7] and in experiment [8] were 4.94 µM and 6.05 µM, respectively. Besides, the TGI is 60.2 µM in experiment [1]; over 100 µM in experiment [2]; over 100 µM in experiment [3]; over 100 µM in experiment [4]; over 100 µM in experiment [5]; over 100 µM in experiment [6]. Also, the TGI in experiment [7] and in experiment [8] was over 100 µM throughout.
In the case of `Cc1cn(CCC(N)C(=O)O)c(=O)[nH]c1=O` (stereo not drawn), the TGI in experiment [1], in experiment [2], in experiment [3], in experiment [4], in experiment [5] and in experiment [6] was over 100 µM in each case. Further, the TGI in experiment [7] and in experiment [8] was over 100 µM throughout.
For the compound `CN(C)c1ccc(C(=N)c2ccc(N(C)C)cc2)cc1`, the TGI was 7.45 µM and 4.58 µM in experiment [1]; over 100 µM in experiment [2]; over 100 µM in experiment [3]; 64.9 µM in experiment [4]; 10.8 µM and 16.8 µM in experiment [5]; 47.5 µM and 30.9 µM in experiment [6]. Moreover, the TGI was 7.43 µM and 10.9 µM in experiment [7]; 32 µM and > 100 µM in experiment [8]. Besides, the GI50 was 4.14 µM and 5.93 µM in experiment [2]; 2.56 µM and 2.6 µM in experiment [3]; 0.553 µM in experiment [4]; 2.13 µM and 2.95 µM in experiment [5]; 5.77 µM and 7.67 µM in experiment [6]; 1.8 µM and 2.28 µM in experiment [7]. Besides, the GI50 in experiment [8] was 3.65 µM and 5.86 µM.
Consider `CCn1c(-c2c(Cl)cc(O)cc2Cl)cc2c(Cl)cc(O)cc21`, for which the TGI in experiment [1] is 30.1 µM; in experiment [2], over 100 µM; in experiment [3] it was 12.8 µM; in experiment [4], over 100 µM; in experiment [5], 91.5 µM; in experiment [6], 31 µM. Moreover, the TGI in experiment [7] was 87.6 µM; in experiment [8] it was over 100 µM.
On to `C[C@]12CC[C@@H]3c4ccc(O)cc4CC[C@H]3[C@@H]1CC[C@@H]2NS(=O)(=O)c1cccc(Cl)c1`, for which the GI50 in experiment [1] is 1.56 µM; in experiment [2], 4.17 µM; in experiment [3] it was 2.28 µM; in experiment [4], 3.14 µM; in experiment [5], 2.34 µM; in experiment [6], 2.44 µM. Also, the GI50 in experiment [7] was 2.97 µM; in experiment [8], 2.01 µM. The TGI in experiment [1] stood at 5.19 µM; in experiment [2] it was 14.9 µM; in experiment [3] it was 7.2 µM; in experiment [4], 11.8 µM; in experiment [5], 6.35 µM; in experiment [6], 7.75 µM. The TGI in experiment [7] amounted to 11.3 µM; in experiment [8], 8.75 µM.
With `C=C(C)[C@@H]1CC[C@]2(COCCCNCCCN)CC[C@]3(C)[C@H](CC[C@@H]4[C@@]5(C)CC[C@H](OCCCN)C(C)(C)[C@@H]5CC[C@]43C)[C@@H]12`, the GI50 in experiment [1] is 7.22 µM; in experiment [2] it was 0.895 µM; in experiment [3] it was 0.86 µM; in experiment [4], 0.879 µM; in experiment [5], 0.866 µM; in experiment [6] it was 0.863 µM. Moreover, the GI50 in experiment [7] was 1.07 µM; in experiment [8] it was 0.765 µM. The TGI in experiment [1] came to 14.4 µM; in experiment [2] it was 1.62 µM; in experiment [3], 1.59 µM; in experiment [4] it was 1.82 µM; in experiment [5] it was 1.65 µM; in experiment [6], 1.67 µM. The TGI came to 2.56 µM in experiment [7] and 1.5 µM in experiment [8].
`O=C1NCN(c2ccccc2)C12CCN(CCCC(c1ccc(F)cc1)c1ccc(F)cc1)CC2`: the GI50 in experiment [1] was 1.18 µM; in experiment [2] it was 3.25 µM; in experiment [3], 2.09 µM; in experiment [4] it was 1.71 µM; in experiment [5], 1.67 µM; in experiment [6], 1.89 µM. Further, the GI50 is 1.82 µM in experiment [7] and 1.28 µM in experiment [8]. The TGI in experiment [1] worked out at 4.94 µM; in experiment [2], 11.2 µM; in experiment [3], 4.71 µM; in experiment [4] it was 4.11 µM; in experiment [5], 3.18 µM; in experiment [6], 3.88 µM. For the same compound, the results for the TGI in experiment [7] and in experiment [8] were 4.1 µM and 3.96 µM, respectively.
Regarding `COc1cccc(-n2ncc3c(N/N=C/c4ccc(C)cc4)ncnc32)c1`, the GI50 in experiment [1] is over 5.43 µM; in experiment [2] it was over 25 µM; in experiment [3] it was over 25 µM; in experiment [4], over 25 µM; in experiment [5], over 25 µM; in experiment [6], over 25 µM. Moreover, the GI50 in experiment [7] and in experiment [8] was over 25 µM throughout. The TGI in experiment [1], in experiment [2], in experiment [3], in experiment [4], in experiment [5] and in experiment [6] was over 25 µM throughout. In addition, the TGI in experiment [7] and in experiment [8] was over 25 µM in each case.
As for `CC/C=C\C[C@H](O)C/C=C1/C(=O)C=C[C@@H]1C/C=C\CCCC(=O)OC(C)C`, the GI50 in experiment [1] is 3 µM; in experiment [2], 3.05 µM; in experiment [3] it was 0.674 µM; in experiment [4], 0.391 µM; in experiment [5] it was 0.79 µM; in experiment [6], 3.17 µM. In addition, the GI50 in experiment [7] is 0.371 µM; in experiment [8], 1.84 µM. For the same compound, the TGI in experiment [1] was found to be 8.12 µM; in experiment [2] it was 11.9 µM; in experiment [3] it was 2.75 µM; in experiment [4], 20.7 µM; in experiment [5], 3.17 µM; in experiment [6] it was 9.77 µM. The values for the TGI in experiment [7] and in experiment [8] were 0.939 µM and 3.84 µM, respectively.
With `O=C1Nc2ccccc2/C1=C\c1cccc(/C=C2/C(=O)Nc3ccccc32)n1`, the GI50 in experiment [1] was 1.5 µM; in experiment [2], 0.881 µM; in experiment [3] it was 0.219 µM; in experiment [4], 0.291 µM; in experiment [5] it was 0.484 µM; in experiment [6], 1.25 µM. For the same compound, the GI50 in experiment [7] was 0.232 µM; in experiment [8] it was 0.779 µM. For the same compound, the TGI in experiment [1] is 2.9 µM; in experiment [2], 2.26 µM; in experiment [3], 0.618 µM; in experiment [4], over 37.9 µM; in experiment [5], 2.11 µM; in experiment [6], 2.77 µM. The TGI was determined as 0.699 µM in experiment [7] and 2.37 µM in experiment [8].
